ChEMBL document CHEMBL1129829, “Synthesis and biological activity of P2P4 azapeptidomimetic P1-argininal and P1-ketoargininamide derivatives: a novel class of serine protease inhibitors” (Bioorg Med Chem Lett, 1997)
Values belong to the compound of their own block, whether it stands above or below them.

Legend:
Serine protease 1 [1] = molecular target: T1, Serine protease 1 (Bos taurus, UniProt P00760); assay: Compound was evaluated for its 50% inhibitory concentration against cow protease enzyme trypsin
T1 sequence (P00760 whole entry): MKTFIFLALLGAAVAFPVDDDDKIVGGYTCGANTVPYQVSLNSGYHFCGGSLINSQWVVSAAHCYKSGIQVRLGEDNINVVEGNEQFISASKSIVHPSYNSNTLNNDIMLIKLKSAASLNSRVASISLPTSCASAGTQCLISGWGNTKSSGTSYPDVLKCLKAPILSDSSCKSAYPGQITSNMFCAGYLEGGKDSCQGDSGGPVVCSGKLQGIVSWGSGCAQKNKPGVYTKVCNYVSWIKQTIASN

Prothrombin [2] = molecular target: T2, Prothrombin (Homo sapiens, UniProt P00734)
Plasminogen [3] = molecular target: T3, Plasminogen (Homo sapiens, UniProt P00747)
Coagulation factor VII [4] = molecular target: T4, Coagulation factor VII (Homo sapiens, UniProt P08709); assay: Compound was evaluated for its 50 percent inhibitory concentration against human Coagulation factor VII
T4 sequence (P08709 whole entry): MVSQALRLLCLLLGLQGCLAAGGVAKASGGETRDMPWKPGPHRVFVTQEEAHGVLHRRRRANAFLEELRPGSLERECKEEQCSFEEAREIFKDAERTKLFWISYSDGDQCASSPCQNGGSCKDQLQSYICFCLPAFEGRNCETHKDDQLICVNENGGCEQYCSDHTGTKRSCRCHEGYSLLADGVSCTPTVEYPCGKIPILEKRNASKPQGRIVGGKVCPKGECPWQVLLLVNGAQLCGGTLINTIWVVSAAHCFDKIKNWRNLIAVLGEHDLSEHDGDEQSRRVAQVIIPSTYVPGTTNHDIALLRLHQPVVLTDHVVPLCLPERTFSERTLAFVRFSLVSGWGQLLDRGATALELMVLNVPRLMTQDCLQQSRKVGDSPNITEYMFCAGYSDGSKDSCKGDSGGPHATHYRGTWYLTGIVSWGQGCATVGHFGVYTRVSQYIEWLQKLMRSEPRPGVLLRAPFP

Coagulation factor X [5] = molecular target: T5, Coagulation factor X (Homo sapiens, UniProt P00742)
Coagulation factor VII [6] = molecular target: T4, Coagulation factor VII; assay: Compound was evaluated for its 50 percent inhibitory concentration against human Coagulation factor VII: Inactive
Prothrombin [7] = molecular target: T2, Prothrombin; assay: Compound was evaluated for its 50 percent inhibitory concentration against human thrombin factor (FIIa)
Serine protease 1 [8] = molecular target: Serine protease 1 (Homo sapiens, UniProt P07477); assay: Compound was evaluated for its 50% inhibitory concentration against human protease enzyme trypsin
Coagulation factor X [9] = molecular target: T5, Coagulation factor X; assay: Compound was evaluated for its 50% inhibitory concentration against Coagulation factor X
Plasminogen [10] = molecular target: T3, Plasminogen; assay: Compound was evaluated for its 50% inhibitory concentration against human protease enzyme plasmin
Coagulation factor VII [11] = molecular target: T4, Coagulation factor VII; assay: Compound was evaluated for its 50 percent inhibitory concentration against human Coagulation factor VII; inactive
Plasminogen [12] = molecular target: T3, Plasminogen; assay: Compound was evaluated for its 50% inhibitory concentration against human protease enzyme plasmin; Inactive

T5 sequence (P00742 41-179 limits assumed): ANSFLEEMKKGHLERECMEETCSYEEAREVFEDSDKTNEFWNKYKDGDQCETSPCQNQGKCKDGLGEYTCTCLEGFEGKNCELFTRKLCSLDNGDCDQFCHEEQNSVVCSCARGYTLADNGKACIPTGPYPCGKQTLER
T5 sequence (P00742 235-488 limits assumed): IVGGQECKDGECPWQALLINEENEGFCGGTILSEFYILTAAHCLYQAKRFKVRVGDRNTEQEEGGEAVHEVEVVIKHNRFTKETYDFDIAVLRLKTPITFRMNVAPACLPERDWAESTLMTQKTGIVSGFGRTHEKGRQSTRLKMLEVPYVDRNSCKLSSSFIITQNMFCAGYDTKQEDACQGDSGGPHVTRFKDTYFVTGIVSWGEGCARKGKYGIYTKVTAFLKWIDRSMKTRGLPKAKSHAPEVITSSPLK
Chain of Serine protease 1 (Homo sapiens, UniProt P07477) (P07477 whole entry): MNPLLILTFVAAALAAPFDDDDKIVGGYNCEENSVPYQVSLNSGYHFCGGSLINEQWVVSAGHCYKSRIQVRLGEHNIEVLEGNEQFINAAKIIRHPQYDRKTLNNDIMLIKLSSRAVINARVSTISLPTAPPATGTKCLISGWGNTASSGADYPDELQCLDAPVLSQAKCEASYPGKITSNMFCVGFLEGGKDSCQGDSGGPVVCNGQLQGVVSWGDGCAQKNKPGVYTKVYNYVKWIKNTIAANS
T3 sequence (P00747 97-580 limits assumed): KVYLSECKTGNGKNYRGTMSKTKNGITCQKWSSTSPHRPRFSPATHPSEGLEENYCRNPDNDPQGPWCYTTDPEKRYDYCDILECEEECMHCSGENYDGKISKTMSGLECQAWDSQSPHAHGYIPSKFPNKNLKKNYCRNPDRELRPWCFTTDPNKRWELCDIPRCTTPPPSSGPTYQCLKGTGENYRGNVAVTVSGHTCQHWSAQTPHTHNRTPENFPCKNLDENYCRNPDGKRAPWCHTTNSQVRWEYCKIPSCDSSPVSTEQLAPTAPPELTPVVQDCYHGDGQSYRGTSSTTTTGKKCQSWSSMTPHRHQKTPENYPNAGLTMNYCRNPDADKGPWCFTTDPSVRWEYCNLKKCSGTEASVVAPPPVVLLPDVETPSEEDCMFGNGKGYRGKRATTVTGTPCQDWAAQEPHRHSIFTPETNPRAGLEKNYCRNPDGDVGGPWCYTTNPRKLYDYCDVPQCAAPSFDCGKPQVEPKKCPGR
T3 sequence (P00747 581-810 limits assumed): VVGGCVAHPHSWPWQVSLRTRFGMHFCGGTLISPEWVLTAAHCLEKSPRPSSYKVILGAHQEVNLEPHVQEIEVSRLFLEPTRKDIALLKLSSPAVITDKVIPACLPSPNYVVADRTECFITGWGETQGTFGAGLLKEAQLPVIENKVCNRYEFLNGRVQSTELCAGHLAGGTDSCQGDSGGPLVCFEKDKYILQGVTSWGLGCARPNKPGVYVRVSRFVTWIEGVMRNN

SMILES: CC(C)(C)OC(=O)NN(Cc1ccccc1)C(=O)[C@@H]1CCCC[C@H]1C(=O)N[C@@H](CCCN=C(N)N)C(=O)C(=O)NCCc1ccccc1
IC50 (Coagulation factor VII [6]): Not Active
IC50 (Prothrombin [7]): 0.88 µM
IC50 (Serine protease 1 [8]): 0.25 µM
IC50 (Plasminogen [3]): Not Active
IC50 (Coagulation factor X [5]): Not Active

SMILES: CCCC(CCC)C(=O)NN(CC(=O)OCC)C(=O)[C@@H]1CCCC[C@H]1C(=O)N[C@@H](CCCN=C(N)N)C(=O)C(=O)NCCc1ccccc1
IC50 (Prothrombin [7]): 13.2 µM
IC50 (Serine protease 1 [8]): 22.2 µM
IC50 (Coagulation factor VII [11]): Not Active
IC50 (Plasminogen [12]): Not Active
IC50 (Coagulation factor X [5]): Not Active

SMILES: CC(=O)NN(Cc1ccccc1)C(=O)[C@@H]1CCCC[C@H]1C(=O)N[C@@H](CCCN=C(N)N)C(=O)C(=O)NCCc1ccccc1
IC50 (Prothrombin [7]): 3.2 µM
IC50 (Serine protease 1 [1]): 0.108 µM
IC50 (Coagulation factor VII [4]): 8.5 µM
IC50 (Plasminogen [10]): > 2.5 µM
IC50 (Coagulation factor X [5]): Not Active

SMILES: CCOC(=O)CN(NC(C)=O)C(=O)[C@@H]1CCCC[C@H]1C(=O)N[C@H](C=O)CCCN=C(N)N
IC50 (Prothrombin [7]): 22.1 µM
IC50 (Serine protease 1 [1]): 0.59 µM
IC50 (Plasminogen [3]): Not Active
IC50 (Coagulation factor VII [4]): > 25 µM
IC50 (Coagulation factor X [5]): Not Active

SMILES: CC(=O)NN(Cc1ccccc1)C(=O)[C@@H]1CCCC[C@H]1C(=O)N[C@H](C=O)CCCN=C(N)N
IC50 (Serine protease 1 [1]): > 2.5 µM
IC50 (Prothrombin [2]): Not Active
IC50 (Plasminogen [3]): Not Active
IC50 (Coagulation factor VII [4]): > 25 µM
IC50 (Coagulation factor X [5]): Not Active

More lines, now with the values ahead:

IC50 (Serine protease 1 [1]): 1.31 µM
IC50 (Prothrombin [2]): Not Active
IC50 (Plasminogen [3]): Not Active
IC50 (Coagulation factor VII [4]): 18 µM
IC50 (Coagulation factor X [5]): Not Active
SMILES: COC(=O)CN(NC(=O)OC(C)(C)C)C(=O)[C@@H]1CCCC[C@H]1C(=O)N[C@@H](CCCN=C(N)N)C(=O)C(=O)NCCc1ccccc1

IC50 (Prothrombin [7]): 0.0023 µM
IC50 (Serine protease 1 [1]): 0.00076 µM
IC50 (Coagulation factor X [9]): 0.698 µM
IC50 (Coagulation factor VII [4]): 0.706 µM
IC50 (Plasminogen [10]): 2.71 µM
SMILES: CC(C)(C)OC(=O)N[C@@H](CC(=O)O)C(=O)N1CCCC1C(=O)N[C@@H](CCCN=C(N)N)C(=O)C(=O)NCCc1ccccc1 (some centres undefined)

IC50 (Prothrombin [7]): 12.8 µM
IC50 (Serine protease 1 [8]): 5.7 µM
IC50 (Plasminogen [3]): Not Active
IC50 (Coagulation factor VII [4]): > 25 µM
IC50 (Coagulation factor X [5]): Not Active
SMILES: CC(=O)NN(CCCc1ccccc1)C(=O)[C@@H]1CCCC[C@H]1C(=O)N[C@H](C=O)CCCN=C(N)N

IC50 (Prothrombin [7]): > 2.5 µM
IC50 (Serine protease 1 [1]): 0.25 µM
IC50 (Plasminogen [3]): Not Active
IC50 (Coagulation factor VII [4]): 25 µM
IC50 (Coagulation factor X [5]): Not Active
SMILES: CCOC(=O)CN(NC(=O)OC(C)(C)C)C(=O)[C@@H]1CCCC[C@H]1C(=O)N[C@@H](CCCN=C(N)N)C(=O)C(=O)NCCc1ccccc1

IC50 (Prothrombin [7]): > 2.5 µM
IC50 (Serine protease 1 [1]): 0.25 µM
IC50 (Plasminogen [3]): Not Active
IC50 (Coagulation factor VII [4]): 22 µM
IC50 (Coagulation factor X [5]): Not Active
SMILES: CCOC(=O)CN(NC(=O)OC(C)(C)C)C(=O)[C@@H]1CCCC[C@H]1C(=O)N[C@H](C=O)CCCN=C(N)N

IC50 (Serine protease 1 [1]): 0.156 µM
IC50 (Coagulation factor X [9]): > 2.5 µM
IC50 (Coagulation factor VII [4]): 4.3 µM
IC50 (Plasminogen [10]): > 2.5 µM
SMILES: CC(=O)N[C@H](Cc1ccccc1)C(=O)N1CCC[C@H]1C(=O)N[C@H]1CCCN(C(=N)N)C1O (some centres undefined)

IC50 (Prothrombin [7]): > 2.5 µM
IC50 (Serine protease 1 [1]): > 2.5 µM
IC50 (Plasminogen [3]): Not Active
IC50 (Coagulation factor VII [4]): > 25 µM
IC50 (Coagulation factor X [5]): Not Active
SMILES: CC(C)(C)OC(=O)NN(Cc1ccccc1)C(=O)[C@@H]1CCCC[C@H]1C(=O)N[C@H](C=O)CCCN=C(N)N
